Results reported in PMC11432330, “Novel Drug-like HsrA Inhibitors Exhibit Potent Narrow-Spectrum Antimicrobial Activities against Helicobacter pylori” (International Journal of Molecular Sciences, 2024).
Converted amounts (≈) assume the structure as drawn. Read-outs that look alike come from different tables or passages of the source. Values belong to the compound of their own block, whether it stands above or below them.

How the values were obtained:
S. agalactiae ATCC 12386 = experiment: MIC/MBC according to EUCAST guidelines; format: cell-based; conditions: Streptococcus agalactiae, ATCC12386
Procedure: (§1) The antimicrobial activities of the selected compounds against several Gram-negative and Gran-positive representative species of normal human microbiota were determined according to the EUCAST guidelines. Briefly, standardized inoculums (0.5 McFarland) were freshly prepared from overnight Mueller–Hinton agar plates of reference strains E. coli ATCC 25922, K. pneumonia ATCC 700603, E. faecalis ATCC 29212, S. aureus ATCC 29213, S. epidermidis ATCC 12228, and S. agalactiae ATCC 12386. Next, bacterial suspensions adjusted to 5 × 10^5 CFU/mL in Mueller–Hinton broth were exposed to a range of concentrations from 64 to 0.031 mg/L of the selected compounds. DMSO and conventional antibiotics LVX and AMP were included as controls. […] Experiments were performed twice in triplicate.

S. aureus ATCC 29213 = experiment: MIC/MBC according to EUCAST guidelines; format: cell-based; conditions: Staphylococcus aureus, ATCC29213
Procedure: as §1

E. coli ATCC 25922 = experiment: MIC/MBC according to EUCAST guidelines; format: cell-based; conditions: Escherichia coli, ATCC25922
Procedure: as §1

[1] = system: S. epidermidis ATCC 12228; experiment: MIC/MBC according to EUCAST guidelines; format: cell-based; conditions: Staphylococcus epidermidis, ATCC12228
Procedure: as §1

E. faecalis ATCC 29212 = experiment: MIC/MBC according to EUCAST guidelines; format: cell-based; conditions: Enterococcus faecalis, ATCC29212
Procedure: as §1

[2] = system: H. pylori ATCC 43504 (MTZ-R); experiment: MIC/MBC, broth microdilution; format: cell-based, Helicobacter pylori; conditions: H. pylori ATCC 43504 (MTZ-R)
Procedure: (§2) The antimicrobial activity of the HsrA inhibitors was evaluated by the determination of the minimal inhibitory concentration (MIC) against four different strains of H. pylori: ATCC 700392 (aka 26695), ATCC 43504 (MTZ-resistant reference strain), ATCC 700684 (CLR-resistant reference strain), and Donostia 2 (LVX-resistant clinical isolate). The MICs were determined by the broth microdilution method, as previously described. Briefly, H. pylori strains were grown in blood agar at 37 °C for 72 h under microaerobic conditions. Fresh inoculums adjusted at OD600 = 0.01 [~10^6 colony forming units (CFU) per mL] in BHI broth supplemented with 4% fetal bovine serum (BHI + FBS) were prepared and immediately exposed to final concentrations between 64 and 0.031 mg/L of each compound of interest. The compound solvent (DMSO) as well as conventional antibiotics (MTZ, CLR, LVX) were included as controls. […] Each experiment was performed twice in triplicate. The MIC and MBC values of the selected compounds against C. jejuni ATCC 33560 were determined by using the same method and culture conditions described for the H. pylori strains.

[3] = system: H. pylori Donostia 2 (LVX-R); experiment: MIC/MBC, broth microdilution; format: cell-based, Helicobacter pylori; conditions: H. pylori Donostia 2 (LVX-R)
Procedure: as §2

[4] = system: H. pylori ATCC 700392 (26695); experiment: MIC/MBC, broth microdilution; format: cell-based, Helicobacter pylori; conditions: H. pylori ATCC 700392 (26695)
Procedure: as §2

[5] = system: H. pylori ATCC 700684 (CLR-R); experiment: MIC/MBC, broth microdilution; format: cell-based, Helicobacter pylori
Procedure: as §2

[6] = system: K. pneumoniae ATCC 700603; experiment: MIC/MBC according to EUCAST guidelines; format: cell-based, Klebsiella pneumonia; conditions: Klebsiella pneumoniae, ATCC700603
Procedure: as §1

C. jejuni ATCC 33560 = experiment: MIC/MBC, broth microdilution; format: cell-based; conditions: Campylobacter jejuni, ATCC33560, C. jejuni ATCC 33560
Procedure: as §2

H. pylori = system: H. pylori; design: method as in PMID 31383920, PMID 34354964; conditions: ref [40],[70]; cited from earlier work
[7] = system: T1, HsrA (Helicobacter pylori 26695), ORF:12bb3c8f; experiment: EMSA; conditions: EMSA: 10 mM bis-Tris pH 7.5, 40 mM KCl, 100 mg/L BSA, 1 mM DTT, 5% glycerol; room temperature 20 min; 6% native gel, SYBR Safe
T1 sequence: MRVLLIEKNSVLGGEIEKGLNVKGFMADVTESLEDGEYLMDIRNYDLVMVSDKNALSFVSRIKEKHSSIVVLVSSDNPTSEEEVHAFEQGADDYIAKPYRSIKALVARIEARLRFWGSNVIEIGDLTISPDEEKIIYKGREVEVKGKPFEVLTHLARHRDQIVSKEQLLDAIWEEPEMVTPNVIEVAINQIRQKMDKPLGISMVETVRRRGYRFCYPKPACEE

[8] = Helicobacter pylori, ATCC43504, read-out: MBC
[9] = Helicobacter pylori, ATCC43504, read-out: MIC
[10] = Helicobacter pylori, read-out: MBC
[11] = Helicobacter pylori, read-out: MIC
[12] = Helicobacter pylori, ATCC700392, read-out: MBC
[13] = Helicobacter pylori, ATCC700392, read-out: MIC
[14] = Helicobacter pylori, ATCC700684, read-out: MBC
[15] = Helicobacter pylori, ATCC700684, read-out: MIC

MIC [2, 9]: 0.5 µg/mL (≈ 1.38 µM) | MIC [3, 11]: 16 µg/mL (≈ 44.3 µM) | MIC [4, 13]: 0.12 µg/mL (≈ 0.332 µM) | MIC [5, 15]: 0.12 µg/mL (≈ 0.332 µM) | MIC [6]: 0.5 µg/mL (≈ 1.38 µM) | MIC (C. jejuni ATCC 33560): < 0.12 µg/mL
Compound: C[C@H]1COc2c(N3CCN(C)CC3)c(F)cc3c(=O)c(C(=O)O)cn1c23 [LVX, levofloxacin, reference compound]
MBC [2, 8]: 0.5 µg/mL (≈ 1.38 µM) | MBC [3, 10]: 32 µg/mL (≈ 88.6 µM) | MBC [4, 12]: 0.12 µg/mL (≈ 0.332 µM) | MBC [5, 14]: 0.12 µg/mL (≈ 0.332 µM) | MBC [6]: 0.5 µg/mL (≈ 1.38 µM) | MBC (C. jejuni ATCC 33560): < 0.12 µg/mL

MIC [2]: 4 µg/mL (≈ 9.36 µM) | MIC [3]: 8 µg/mL (≈ 18.7 µM) | MIC [4]: 8 µg/mL (≈ 18.7 µM) | MIC [5]: 4 µg/mL (≈ 9.36 µM)
Compound: NC(Cn1ccc(C(F)(F)F)n1)=NOC(=O)Nc1ccc(SC(F)(F)F)cc1 [Ligand IX]
MBC [2]: 8 µg/mL (≈ 18.7 µM) | MBC [3]: 16 µg/mL (≈ 37.4 µM) | MBC [4]: 16 µg/mL (≈ 37.4 µM) | MBC [5]: 8 µg/mL (≈ 18.7 µM)

MIC [2]: 4 µg/mL (≈ 11.3 µM) | MIC [3]: 8 µg/mL (≈ 22.5 µM) | MIC [4]: 16 µg/mL (≈ 45 µM) | MIC [5]: 8 µg/mL (≈ 22.5 µM)
Compound: CCOC(=O)c1ccc(-n2nnc(C=CC=CN3CCOCC3)n2)cc1 [Ligand XVII]
MBC [2]: 8 µg/mL (≈ 22.5 µM) | MBC [3]: 8 µg/mL (≈ 22.5 µM) | MBC [4]: 16 µg/mL (≈ 45 µM) | MBC [5]: 8 µg/mL (≈ 22.5 µM)

MIC [2]: 16 µg/mL (≈ 35.7 µM) | MIC [3]: 32 µg/mL (≈ 71.4 µM) | MIC [4]: 32 µg/mL (≈ 71.4 µM) | MIC [5]: 32 µg/mL (≈ 71.4 µM)
Compound: Cc1sc2c(c1C)C(O)=C(C(=O)Nc1ccc(OC(F)(F)F)cc1)S(=O)(=O)N2C [Ligand XXVIII]
MBC [2]: 16 µg/mL (≈ 35.7 µM) | MBC [3]: 32 µg/mL (≈ 71.4 µM) | MBC [4]: 64 µg/mL (≈ 143 µM) | MBC [5]: 32 µg/mL (≈ 71.4 µM)

MIC [2]: 64 µg/mL (≈ 171 µM) | MIC [3]: > 64 µg/mL | MIC [4]: > 64 µg/mL | MIC [5]: > 64 µg/mL
Compound: CC(=O)Nc1cc(C(=O)c2cccs2)nn(-c2ccc(Cl)cc2)c1=O [Ligand XXXI]
MBC [2]: 64 µg/mL (≈ 171 µM) | MBC [3]: > 64 µg/mL | MBC [4]: > 64 µg/mL | MBC [5]: > 64 µg/mL

Further lines, the compound ahead of its results:

Compound: CC1(C)S[C@@H]2[C@H](NC(=O)[C@H](N)c3ccccc3)C(=O)N2[C@H]1C(=O)O [AMP, ampicillin, reference compound]
MBC (S. agalactiae ATCC 12386): 0.5 µg/mL (≈ 1.43 µM) | MIC (S. agalactiae ATCC 12386): 0.25 µg/mL (≈ 0.715 µM) | MBC (S. aureus ATCC 29213): 4 µg/mL (≈ 11.4 µM) | MIC (S. aureus ATCC 29213): 2 µg/mL (≈ 5.72 µM) | MBC (E. coli ATCC 25922): 4 µg/mL (≈ 11.4 µM) | MIC (E. coli ATCC 25922): 4 µg/mL (≈ 11.4 µM) | MBC [1]: 4 µg/mL (≈ 11.4 µM) | MIC [1]: 4 µg/mL (≈ 11.4 µM) | MBC (E. faecalis ATCC 29212): 4 µg/mL (≈ 11.4 µM) | MIC (E. faecalis ATCC 29212): 4 µg/mL (≈ 11.4 µM)

Compound: CC[C@H]1OC(=O)[C@H](C)[C@@H](O[C@H]2C[C@@](C)(OC)[C@@H](O)[C@H](C)O2)[C@H](C)[C@@H](O[C@@H]2O[C@H](C)C[C@H](N(C)C)[C@H]2O)[C@](C)(OC)C[C@@H](C)C(=O)[C@H](C)[C@@H](O)[C@]1(C)O [CLR, clarithromycin, reference compound]
MBC [2, 8]: < 0.03 µg/mL | MIC [2, 9]: < 0.03 µg/mL | MBC [3, 10]: < 0.03 µg/mL | MIC [3, 11]: < 0.03 µg/mL | MBC [4, 12]: < 0.03 µg/mL | MIC [4, 13]: < 0.03 µg/mL | MBC [5, 14]: 32 µg/mL (≈ 42.8 µM) | MIC [5, 15]: 16 µg/mL (≈ 21.4 µM)

Compound: Cc1oc2ccccc2c1CC(=O)NNC(=S)Nc1cccc(C(F)(F)F)c1 [Ligand X]
MBC [2]: 8 µg/mL (≈ 19.6 µM) | MIC [2]: 8 µg/mL (≈ 19.6 µM) | MBC [3]: 16 µg/mL (≈ 39.3 µM) | MIC [3]: 8 µg/mL (≈ 19.6 µM) | MBC [4]: 16 µg/mL (≈ 39.3 µM) | MIC [4]: 8 µg/mL (≈ 19.6 µM) | MBC [5]: 8 µg/mL (≈ 19.6 µM) | MIC [5]: 8 µg/mL (≈ 19.6 µM)

Compound: Cc1ncc([N+](=O)[O-])n1CCO [MTZ, metronidazole, reference compound]
MBC [2, 8]: 128 µg/mL (≈ 748 µM) | MIC [2, 9]: 64 µg/mL (≈ 374 µM) | MBC [3, 10]: 8 µg/mL (≈ 46.7 µM) | MIC [3, 11]: 8 µg/mL (≈ 46.7 µM) | MBC [4, 12]: 2 µg/mL (≈ 11.7 µM) | MIC [4, 13]: 1 µg/mL (≈ 5.84 µM) | MBC [5, 14]: 2 µg/mL (≈ 11.7 µM) | MIC [5, 15]: 1 µg/mL (≈ 5.84 µM)

Compound: O=c1cc(-c2ccccc2)oc2cc(O)cc(O)c12 [chrysin]
Combinatory action with clarithromycin or metronidazole against H. pylori (H. pylori): strong synergistic bactericidal action

Compound: COc1ccc([C@@H]2CC(=O)c3c(O)cc(O)cc3O2)cc1O [hesperetin]
Combinatory action with clarithromycin or metronidazole against H. pylori (H. pylori): strong synergistic bactericidal action

Compound: CCCCACACTTGCCCCATACAGACTAAAATCAAATCACACCTTAAATAATAACAAAGTTTAAAATAAATATTAGTGGTTTTTATTAAGAACGCTTGTCTTTTTAGAATAAATGGCCATAAAATAGCCATAATTCTTGTAGGTATGCCCCCATTTTCCTATAAAAATTCCTAAAAAGATATTGTTATAAGACACATTAATAGTTTTTCTTGTATAATTCTAGGCTGAATTCAATTTATTTTATACGATATTAAGGAGACATATTACCATGTTTCAAATTAGATGGCATGC (double strand) [PporG (porGDAB promoter)]
binding [7]: binds
